# Laboratory results taken from patent publication US4678809A, “Injectable fomulations of disulfiram for the treatment of alcoholism” (priority 1985, dated 1987).
# Entries after “also recorded” stand apart in the source; their conditions may differ. Where two headings read alike, the source gives them in different places.
# What was measured:
# [1] = in vivo; cited from earlier work
# [2] = Gamma irradiation: sterility and chemical stability; format: physicochemical; conditions: after gamma irradiation
# Text: In order to be suitable for injection, the formulations must be sterile. […] Gamma irradiation was therefore used as the best available technique.
# A Best Industries Gammaradiator 100 Cs-137 irradiator was used. The disulfiram unit doses were placed in the 20×20 cm irradiation chamber, 30 cm from a 1800 curie Cesium-137 source emitting 660 KeV gamma rays. The exposure rate at the point of irradiation was 90 R/min. A filter was placed in the beam to ensure a uniform exposure at the floor of the irradiation chamber. A total exposure of 50,000 R was administered. Prior to injection, approximately 10 cc of sterile normal saline was drawn up into the syringe which was then shaken vigorously to suspend the DSF powder. The resultant slurry could then be readily injected through a wide bore (e.g. 14 gauge) needle.
# alcoholic human subjects [3] = test: Clinical study: tolerability, injection site and systemic effects; format: in vivo; conditions: 250 mg every morning, two subjects
# Description: (§1) Two alcoholic human subjects were studied: Subject No.1 and subject No. 2 a person.
# (§2) Each subject discontinued oral disulfiram one week before commencing the study. On day zero, each fasted from the preceding midnight, then received a standard alcohol challenge (0.15 G/kg). After eating a meal, and confirming by breath testing (with an Alco-Sensor III) that the blood ethanol concentration had fallen to zero, subject No. 1 received a dose of 1 G disulfiram subcutaneously. The drug was administered in the upper outer quadrant of the right buttock with aseptic precautions using a 14 G needle, after preparing the skin with infiltration of local anesthetic. A control injection of sterile normal saline was administered to the left buttock. Subject No. 2 received 2 G disulfiram in a similar fashion.
# (§3) A similar alcohol challenge was then repeated on days 7, 14, 21, and 28 after the injection. A physical examination was performed at each visit and the injection site examined.
# alcoholic human subjects [4] = test: Clinical study: subjective and clinical response to alcohol challenge; format: in vivo
# Description: as §1, §2, §3
# Subjective responses--the subject was asked to state aloud the number in the following table which most closely accorded with the way he or she felt at the moment. This response was executed every five minutes, following the alcohol challenge, for a two hour period.
# acetaldehyde in breath = test: Clinical study: peak acetaldehyde concentration in the breath after alcohol challenge; format: in vivo, human
# Description: (§4) The method utilizes a Pyrex glass gas-collecting tube (internal volume approximately 300 cc) sealed at both ends with Teflon® taps. A side-port sealed with a Neoprene rubber septum permits sampling of the contents. The tube is first heated to approximately 70° C. to prevent any condensation from the breath. The subject then blows forcefully into the tube, and the Teflon taps are closed at the end of expiration while the tube is still in the subject's mouth. The tube is then taken to the laboratory, where, after reheating to 70° C., a 2.0 ml sample of the breath is aspirated through the Neoprene septum with a heated syringe and immediately injected into a Gas Chromatograph, for assay of ethanol and acetaldehyde by a standard flame-ionization detection technique. (The method has been described by Phillips et al. in Alcoholism: Clinical & Experimental Research 1984; 8:293-296.)
# (§5) Each subject discontinued oral disulfiram one week before commencing the study. On day zero, each fasted from the preceding midnight, then received a standard alcohol challenge (0.15 G/kg). After eating a meal, and confirming by breath testing (with an Alco-Sensor III) that the blood ethanol concentration had fallen to zero, subject No. 1 received a dose of 1 G disulfiram subcutaneously. […]
# ethanol in breath = test: Clinical study: peak ethanol concentration in the breath after alcohol challenge; format: in vivo, human; conditions: compared to peak prior to treatment
# Description: as §4, §5
# [5] = cited from earlier work
# aldehyde dehydrogenase = conditions: thiol groups, cited from earlier work
# [6] = test system: dopamine beta hydroxylase; conditions: cited from earlier work
# alcoholic humans = conditions: cited from earlier work
# [7] = Local and systemic toxicity after subcutaneous implantation in rats
# Description: Two groups of animals were studied: a test group receiving the subcutaneous C-14-disulfiram-PLGA implant, and a control group receiving subcutaneous uncompounded C-14-disulfiram. Each group comprised five Wistar CD-1 male rats weighing between 100-120 g. After anesthesia with Penthrane (Abbott Laboratories), a slit was cut in the skin of the interscapular region and a small subcutaneous pocket was dissected, large enough for the introduction of the 1/8 inch diameter rods. Each rat received 500 mg of the 20% composite rods (containing 100 mg C-14-disulfiram and 400 mg PLFA) and the wound was closed with clips. […] No attempt was made to preserve strict asepsis during these procedures.
# All rats were individually housed in metabolic cages to facilitate the separate collection of urine and feces. Prior to implantation, their fecal and urine samples were collected to determine background counts. Subsequent samples of all excreted urine and feces were collected on days 1,2,7,9,11, 15,18,22,25,29,32,39,46,53,60,67,74,81 and 88 after implantation. Urine samples were assayed for C-14 labelled material in a Beckman LS-230 liquid scintillation counter, and the excretion was calculated as the mass of implanted disulfiram which contained an equivalent amount of radiolabel. Feces were combusted to 14-CO2 with a Harvey Biological oxidizer and absorbed in oxyfluor-CO2 (New England Nuclear) for counting. […]
# [8] = pre-treatment with DSF, Lundwall et al.
structure (smiles),measurement,setting,value
S=C=S [carbon disulfide],excretion of metabolites,[1],a volatile compound excreted in the breath
CCN(CC)C(=S)SSC(=S)N(CC)CC [disulfiram],chemical stability of irradiated samples,[2],did not demonstrate any reduction in the concentration of disulfiram
same,adverse effects of oral disulfiram before the study,alcoholic human subjects [3],no adverse effects
same,"onset of diaphoresis after ethanol challenge, Subject No. 1","alcoholic human subjects [4]; 1 G disulfiram, day 7",20 min
same,"diaphoresis, Subject No. 1","alcoholic human subjects [4]; 1 G disulfiram, day 7, duration of the diaphoretic period",10 min
same,"subjective effects following ethanol challenges, Subject No. 1","alcoholic human subjects [4]; 1 G disulfiram, entire four weeks",no adverse subjective effects
same,"subjective discomfort following ethanol challenge, Subject No. 2","alcoholic human subjects [4]; 2 G disulfiram, day 7","dizziness, facial flushing, blurred vision and headache, and their conjunctivae were observed to be injected"
same,"subjective discomfort score, Subject No. 2, at 20 minutes","alcoholic human subjects [4]; 2 G disulfiram, day 7, 20 minutes, scale 1 Very well to 5 Terrible, 3 = A little unwell",3
same,"subjective discomfort score, Subject No. 2, at 40 minutes","alcoholic human subjects [4]; 2 G disulfiram, day 7, 40 minutes, scale 1 Very well to 5 Terrible, 3 = A little unwell",3
same,"effects following ethanol challenge, Subject No. 2, day 28","alcoholic human subjects [4]; 2 G disulfiram, day 28",no unpleasant symptoms
same,positive results of alcohol challenges (symptoms),"alcoholic human subjects [4]; after DSF injection, human subjects","elevated skin temperatures, dizziness, facial flushing, headache, and blurring of vision"
same,"peak acetaldehyde concentration in breath, Subject No. 1","acetaldehyde in breath; 1 G, compared to peak prior to treatment",elevated peak in Subject No. 1 on day 7
same,acetaldehyde following consumption of alcohol,"acetaldehyde in breath; FIG. 3, after injection of DSF",elevated levels of acetaldehyde
same,"peak ethanol concentration in breath, Subject No. 1",ethanol in breath; 1 G,"elevated peak in subject No. 1, on days 7 and 14"
same,"peak ethanol concentration in breath, Subject No. 2",ethanol in breath; 2 G,only a mild elevation in subject No. 2 on day 7
same,solubility of DSF in water,[5],0.02 G/100 ml
same,solubility in water (in words),[5]; listed as DSF,poorly soluble in water; also recorded: near insolubility in water
same,inactivation of aldehyde dehydrogenase,aldehyde dehydrogenase,inactivating aldehyde dehydrogenase
same,inactivation of aldehyde dehydrogenase,aldehyde dehydrogenase; listed as DSF,inactivates aldehyde dehydrogenase by irreversible disulfide interchange reactions with thiol groups
same,inhibition of dopamine beta hydroxylase,[6],inhibits dopamine beta hydroxylase
same,end of typical response after consuming alcohol,alcoholic humans; [8],≤ 30 min
same,onset of typical response after consuming alcohol,alcoholic humans; [8],five to ten
same,Disulfiram-Ethanol Reaction symptoms,"alcoholic humans; pretreatment with DSF, then ethyl alcohol, listed as DSF","nausea, palpitations, flushing, hyperventilation and hypotension"
same,excretion of metabolites,[1],the breakdown products are promptly excreted
same,metabolism in the blood and liver,[1],very rapidly metabolized in the blood and liver
same,local or systemic toxicity,[7],No evidence of local or systemic toxicity was observed
